Data published in article PMC7288559 (ACS Omega, 2020).

What was measured:
[1] = biological target: recombinant human LDHA (Homo sapiens, UniProt P00338); assay: LDHA enzymatic assay based on NADH cofactor consumption [NAD; assay type: biochemical; details: in vitro, dose-dependent
[2] = test system: pancreatic carcinoma cells MIA PaCa-2; assay type: cell-based; details: lactate in supernatant
[3] = test system: hepatocellular carcinoma cells Snu-398; assay type: cell-based; details: lactate in supernatant

## O=C(O)c1ccc(CN2C(=O)c3cccc(NC(=O)c4ccc(Cl)s4)c3C2=O)cc1 [Compound 3, 4-[(4-{[(5-chloro-2-thienyl)carbonyl]amino}-1,3-dioxo-1,3-dihydro-2H-isoindol-2-yl)methyl]benzoic acid]
[1]
  Inhibition of lactate production by recombinant human LDHA: completely inhibited
[2]
  Inhibition of lactate production in cells: neither 3 nor 7 showed inhibition
[3]
  Inhibition of lactate production in cells: neither 3 nor 7 showed inhibition

## O=C(Nc1cccc(NS(=O)(=O)c2ccc3oc4cc([N+](=O)[O-])ccc4c3c2)c1)C1(O)CC1 [Compound 7, 1-hydroxy-N-(3-{[(7-nitrodibenzo[b,d]furan-2-yl)sulfonyl]amino}phenyl)cyclopropanecarboxamide]
[1]
  Inhibition of lactate production by recombinant human LDHA: completely inhibited
[2]
  Inhibition of lactate production in cells: neither 3 nor 7 showed inhibition
[3]
  Inhibition of lactate production in cells: neither 3 nor 7 showed inhibition
